The results in this text go back to US10377719B2, “Trypanosomes inhibitors” (Hoffmann-La Roche Inc., priority 2015, dated 2019).

Molecules are shown by their SMILES.

The term IC50 denotes the concentration needed to halve the response being measured. Low readings indicate greater potency in that assay, high ones weaker potency in that assay.

One assay deals with Trypanosoma brucei rhodesiense STIB900. Kind of assay: Activity against Trypanosoma brucei rhodesiense STIB900 (Alamar Blue assay). The format is cell-based. The settings on record: Trypanosoma brucei, 70 h, bloodstream forms of T. b. rhodesiense STIB 900, 70 h incubation. As to the method: Activity Against Trypanosoma brucei Rhodesiense STIB900
This stock was isolated in 1982 from a human patient in Tanzania and after several mouse passages cloned and adapted to axenic culture conditions (Baltz, T., D. Baltz, C. Giroud, and J. Crockett. 1985, Cultivation in a semi-defined medium of animal infective forms of Trypanosoma brucei, T. equiperdum, T. evansi, T. rhodesiense and T. gambiense. EMBO Journal 4:1273-1277). Minimum Essential Medium (50 μl) supplemented with 25 mM HEPES, 1 g/l additional glucose, 1% MEM non-essential amino acids (100×), 0.2 mM 2-mercaptoethanol, 1 mM Na-pyruvate and 15% heat inactivated horse serum was added to each well of a 96-well microtiter plate. Serial drug dilutions of eleven 3-fold dilution steps covering a range from […] were prepared. Then 4×10^3 bloodstream forms of T. b. rhodesiense STIB 900 in 50 μl was added to each well and the plate incubated at 37° C. under a 5% CO2 atmosphere for 70 h. 10 μl Alamar Blue (resazurin, 12.5 mg in 100 ml double-distilled water) was then added to each well and incubation continued for a further 2-4 h (Räz, B., M. Iten, Y. Grether-Buhler, R. Kaminsky, and R. Brun. 1997, The Alamar Blue assay to determine drug sensitivity of African trypanosomes (T.b. rhodesiense and T.b. gambiense) in vitro. Acta Trop 68:139-47). Then the plates were read with a Spectramax Gemini XS microplate fluorometer (Molecular Devices Cooperation, Sunnyvale, Calif., USA) using an excitation wave length of 536 nm and an emission wave length of 588 nm. The IC50 values were calculated by linear regression (Huber, W. Koella, J. C. 1993, A comparison of the three methods of estimating EC50 in studies of drug resistance of malaria parasites. Acta Trop. 55, 257-261) from the sigmoidal dose inhibition curves using SoftmaxPro software (Molecular Devices Cooperation, Sunnyvale, Calif., USA). Melarsoprol is used as control.
The molecule `N#CC1(NC(=O)[C@H](Cc2ccc(OC(F)(F)F)c(Cl)c2)NC(=O)c2cc(C(F)(F)F)nn2CC(F)F)CC1` [Example 1, (S)—N-(3-(3-chloro-4-(trifluoromethoxy)phenyl)-1-(1-cyanocyclopropylamino)-1-oxopropan-2-yl)-1-(2,2-difluoroethyl)-3-(trifluoromethyl)-1H-pyrazole-5-carboxamide] came in with an IC50 of 0.003 µM.
Consider `Cn1nc(C(F)(F)F)cc1C(=O)N[C@@H](Cc1ccc(OC(F)(F)F)c(Cl)c1)C(=O)NC1(C#N)CC1` [Example 2, (S)—N-(3-(3-chloro-4-(trifluoromethoxy)phenyl)-1-(1-cyanocyclopropylamino)-1-oxopropan-2-yl)-1-methyl-3-(trifluoromethyl)-1H-pyrazole-5-carboxamide], for which 0.005 µM corresponded to half-maximal inhibition (IC50). This IC50 lies about 1.7-fold higher than the previous one.
As to `Cc1cc(C(=O)N[C@@H](Cc2ccc(OC(F)(F)F)c(Cl)c2)C(=O)NC2(C#N)CC2)n(C)n1` [Example 3, (S)—N-(3-(3-chloro-4-(trifluoromethoxy)phenyl)-1-(1-cyanocyclopropylamino)-1-oxopropan-2-yl)-1,3-dimethyl-1H-pyrazole-5-carboxamide], the IC50 is 0.071 µM.
The molecule `Cn1nc(C2CC2)cc1C(=O)N[C@@H](Cc1ccc(OC(F)(F)F)c(Cl)c1)C(=O)NC1(C#N)CC1` [Example 4, (S)—N-(3-(3-chloro-4-(trifluoromethoxy)phenyl)-1-(1-cyanocyclopropylamino)-1-oxopropan-2-yl)-3-cyclopropyl-1-methyl-1H-pyrazole-5-carboxamide] gave an IC50 of 0.005 µM.
On the same count and under the same terms, the result for `Cn1nc(C(C)(C)C)cc1C(=O)N[C@@H](Cc1ccc(OC(F)(F)F)c(Cl)c1)C(=O)NC1(C#N)CC1` [Example 5, (S)-3-tert-butyl-N-(3-(3-chloro-4-(trifluoromethoxy)phenyl)-1-(1-cyanocyclopropylamino)-1-oxopropan-2-yl)-1-methyl-1H-pyrazole-5-carboxamide] reads 4.43 µM; that for `N#CC1(NC(=O)[C@H](Cc2ccc(OC(F)(F)F)c(Cl)c2)NC(=O)c2ccn(-c3ccc(F)cc3)n2)CC1` [Example 6, (S)—N-(3-(3-chloro-4-(trifluoromethoxy)phenyl)-1-(1-cyanocyclopropylamino)-1-oxopropan-2-yl)-1-(4-fluorophenyl)-1H-pyrazole-3-carboxamide], 0.05 µM.
Regarding `Cn1nc(-c2ccccc2)cc1C(=O)N[C@@H](Cc1ccc(OC(F)(F)F)c(Cl)c1)C(=O)NC1(C#N)CC1` [Example 7, (S)—N-(3-(3-chloro-4-(trifluoromethoxy)phenyl)-1-(1-cyanocyclopropylamino)-1-oxopropan-2-yl)-1-methyl-3-phenyl-1H-pyrazole-5-carboxamide], half-maximal inhibition (IC50) was put at 0.02 µM.
`Cc1oc(-c2ccc(Cl)cc2)nc1C(=O)N[C@@H](Cc1ccc(OC(F)(F)F)c(Cl)c1)C(=O)NC1(C#N)CC1` [Example 8, (S)—N-(3-(3-chloro-4-(trifluoromethoxy)phenyl)-1-(1-cyanocyclopropylamino)-1-oxopropan-2-yl)-2-(4-chlorophenyl)-5-methyloxazole-4-carboxamide] came in with an IC50 of 0.068 µM.
Regarding `N#CC1(NC(=O)[C@H](Cc2ccc(OC(F)(F)F)c(Cl)c2)NC(=O)c2cnn(-c3ccc(F)cc3)n2)CC1` [Example 9, (S)—N-(3-(3-chloro-4-(trifluoromethoxy)phenyl)-1-(1-cyanocyclopropylamino)-1-oxopropan-2-yl)-2-(4-fluorophenyl)-2H-1,2,3-triazole-4-carboxamide], inhibition was half-maximal at 0.009 µM (IC50).
Consider `N#CC1(NC(=O)[C@H](Cc2ccc(OC(F)(F)F)c(Cl)c2)NC(=O)c2cc(-c3ccccc3Cl)n[nH]2)CC1` [Example 10, (S)—N-(3-(3-chloro-4-(trifluoromethoxy)phenyl)-1-(1-cyanocyclopropylamino)-1-oxopropan-2-yl)-3-(2-chlorophenyl)-1H-pyrazole-5-carboxamide], for which the IC50 was 0.013 µM. This IC50 and that of the molecule before are within 1.5-fold of each other.
In the case of `N#CC1(NC(=O)[C@H](Cc2ccc(OC(F)(F)F)c(Cl)c2)NC(=O)c2cc(-c3ccc(F)cc3)n[nH]2)CC1` [Example 11, (S)—N-(3-(3-chloro-4-(trifluoromethoxy)phenyl)-1-(1-cyanocyclopropylamino)-1-oxopropan-2-yl)-3-(4-fluorophenyl)-1H-pyrazole-5-carboxamide], the midpoint of inhibition, the IC50, lay at 0.278 µM.
In the case of `COc1ccc(-c2cc(C(=O)N[C@@H](Cc3ccc(OC(F)(F)F)c(Cl)c3)C(=O)NC3(C#N)CC3)[nH]n2)cc1` [Example 12, (S)—N-(3-(3-chloro-4-(trifluoromethoxy)phenyl)-1-(1-cyanocyclopropylamino)-1-oxopropan-2-yl)-3-(4-methoxyphenyl)-1H-pyrazole-5-carboxamide], 0.162 µM corresponded to half-maximal inhibition (IC50). Compared with the last molecule, the IC50 is about 1.7-fold lower.
Take `N#CC1(NC(=O)[C@H](Cc2ccc(OC(F)(F)F)c(Cl)c2)NC(=O)c2cc(-c3ccccc3)no2)CC1` [Example 13, (S)—N-(3-(3-chloro-4-(trifluoromethoxy)phenyl)-1-(1-cyanocyclopropylamino)-1-oxopropan-2-yl)-3-phenylisoxazole-5-carboxamide]: the concentration for half-maximal inhibition (IC50) amounted to 0.003 µM.
Take `Cc1nn(-c2ccccc2)nc1C(=O)N[C@@H](Cc1ccc(OC(F)(F)F)c(Cl)c1)C(=O)NC1(C#N)CC1` [Example 14, (S)—N-(3-(3-chloro-4-(trifluoromethoxy)phenyl)-1-(1-cyanocyclopropylamino)-1-oxopropan-2-yl)-5-methyl-2-phenyl-2H-1,2,3-triazole-4-carboxamide]: the IC50 amounted to 0.145 µM.
For the molecule `N#CC1(NC(=O)[C@H](Cc2ccc(OC(F)(F)F)c(Cl)c2)NC(=O)c2noc(-c3cccc(F)c3)n2)CC1` [Example 15, (S)—N-(3-(3-chloro-4-(trifluoromethoxy)phenyl)-1-(1-cyanocyclopropylamino)-1-oxopropan-2-yl)-5-(3-fluorophenyl)-1,2,4-oxadiazole-3-carboxamide], the IC50 is 0.005 µM.
`N#CC1(NC(=O)[C@H](Cc2ccc(OC(F)(F)F)c(Cl)c2)NC(=O)c2cnn(-c3ccccc3)n2)CC1` [Example 16, (S)—N-(3-(3-chloro-4-(trifluoromethoxy)phenyl)-1-(1-cyanocyclopropylamino)-1-oxopropan-2-yl)-2-phenyl-2H-1,2,3-triazole-4-carboxamide]: the midpoint of inhibition, the IC50, lay at 0.005 µM.
Still for that read-out and setting: the result for `Cn1nc(-c2cccc(Cl)c2)cc1C(=O)N[C@@H](Cc1ccc(OC(F)(F)F)c(Cl)c1)C(=O)NC1(C#N)CC1` [Example 17, (S)—N-(3-(3-chloro-4-(trifluoromethoxy)phenyl)-1-(1-cyanocyclopropylamino)-1-oxopropan-2-yl)-3-(3-chlorophenyl)-1-methyl-1H-pyrazole-5-carboxamide] reads 0.413 µM.
Turning to `N#CC1(NC(=O)[C@H](Cc2ccc(OC(F)(F)F)c(Cl)c2)NC(=O)c2noc(-c3cccc(Cl)c3)n2)CC1` [Example 18, (S)—N-(3-(3-chloro-4-(trifluoromethoxy)phenyl)-1-(1-cyanocyclopropylamino)-1-oxopropan-2-yl)-5-(3-chlorophenyl)-1,2,4-oxadiazole-3-carboxamide], it took 0.007 µM to reach half-maximal inhibition (IC50).
In turn, `N#CC1(NC(=O)[C@H](Cc2ccc(OC(F)(F)F)c(Cl)c2)NC(c2nnc(-c3ccc(Br)cc3)o2)C(F)(F)F)CC1` (stereo partly drawn) [Example 19, (2S)-2-[[1-[5-(4-bromophenyl)-1,3,4-oxadiazol-2-yl]-2,2,2-trifluoroethyl]amino]-3-[3-chloro-4-(trifluoromethoxy)phenyl]-N-(1-cyanocyclopropyl)propanamide] had an IC50 of 10.1 µM.
For `N#CC1(NC(=O)[C@H](Cc2ccc(OC(F)(F)F)c(Cl)c2)NC(c2nnc(-c3ccccc3)o2)C(F)(F)F)CC1` (stereo partly drawn) [Example 22, (2S)-3-(3-chloro-4-(trifluoromethoxy)phenyl)-N-(1-cyanocyclopropyl)-2-(2,2,2-trifluoro-1-(5-phenyl-1,3,4-oxadiazol-2-yl)ethylamino)propanamide], the IC50 is 16.6 µM.
Regarding `CSc1ccc(-n2ncc(C(=O)N[C@@H](Cc3ccc(OC(F)(F)F)c(Cl)c3)C(=O)NC3(C#N)CC3)n2)cc1` [Example 23, N-[(2S)-3-[3-chloro-4-(trifluoromethoxy)phenyl]-1-[(1-cyanocyclopropyl)amino]-1-oxopropan-2-yl]-2-(4-methylsulfanylphenyl)triazole-4-carboxamide], half-maximal inhibition (IC50) was put at 0.067 µM.
`N#CC1(NC(=O)[C@H](Cc2ccc(OC(F)(F)F)c(Cl)c2)NC(=O)c2cnn(-c3ccc(Cl)cc3)n2)CC1` [Example 24, 2-(4-chlorophenyl)-N-[(2S)-3-[3-chloro-4-(trifluoromethoxy)phenyl]-1-[(1-cyanocyclopropyl)amino]-1-oxopropan-2-yl]triazole-4-carboxamide]: the midpoint of inhibition, the IC50, lay at 0.022 µM.

The same assay, now with this note: bloodstream forms of T. b. rhodesiense STIB 900, 70 h incubation.
Take `N#CC1(NC(=O)[C@H](Cc2ccc(OC(F)(F)F)c(Cl)c2)NC(c2nnc(-c3ccc(Br)cc3)o2)C(F)(F)F)CC1` (stereo partly drawn) [Example 20, (2S)-2-(1-(5-(4-bromophenyl)-1,3,4-oxadiazol-2-yl)-2,2,2-trifluoroethylamino)-3-(3-chloro-4-(trifluoromethoxy)phenyl)-N-(1-cyanocyclopropyl)propanamide]: the IC50 stood at 16.1 µM.
